This note sets out measurements from ChEMBL document CHEMBL3991601, “The target landscape of clinical kinase drugs” (Science, 2017).

In assay [1] the target is T1, ADP/ATP translocase 3 (Homo sapiens, UniProt P12236).
T1 sequence (P12236 whole entry): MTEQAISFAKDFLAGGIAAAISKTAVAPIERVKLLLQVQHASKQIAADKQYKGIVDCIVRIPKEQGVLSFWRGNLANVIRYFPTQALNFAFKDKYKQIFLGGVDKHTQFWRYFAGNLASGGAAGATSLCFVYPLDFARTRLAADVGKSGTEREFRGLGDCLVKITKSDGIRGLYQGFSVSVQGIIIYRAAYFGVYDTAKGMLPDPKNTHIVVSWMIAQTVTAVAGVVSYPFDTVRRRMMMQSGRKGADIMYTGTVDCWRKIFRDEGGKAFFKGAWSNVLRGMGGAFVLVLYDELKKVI

Assay [2] deals with T2, dCTP pyrophosphatase 1 (Homo sapiens, UniProt Q9H773).
T2 sequence (Q9H773 whole entry): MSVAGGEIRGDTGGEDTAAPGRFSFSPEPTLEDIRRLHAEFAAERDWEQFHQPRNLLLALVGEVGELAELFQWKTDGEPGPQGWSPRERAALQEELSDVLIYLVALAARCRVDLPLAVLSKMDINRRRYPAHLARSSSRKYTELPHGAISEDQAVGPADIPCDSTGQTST

For assay [3], the target named is T3, Calcium/calmodulin-dependent protein kinase type IV (Homo sapiens, UniProt Q16566).
T3 sequence (Q16566 whole entry): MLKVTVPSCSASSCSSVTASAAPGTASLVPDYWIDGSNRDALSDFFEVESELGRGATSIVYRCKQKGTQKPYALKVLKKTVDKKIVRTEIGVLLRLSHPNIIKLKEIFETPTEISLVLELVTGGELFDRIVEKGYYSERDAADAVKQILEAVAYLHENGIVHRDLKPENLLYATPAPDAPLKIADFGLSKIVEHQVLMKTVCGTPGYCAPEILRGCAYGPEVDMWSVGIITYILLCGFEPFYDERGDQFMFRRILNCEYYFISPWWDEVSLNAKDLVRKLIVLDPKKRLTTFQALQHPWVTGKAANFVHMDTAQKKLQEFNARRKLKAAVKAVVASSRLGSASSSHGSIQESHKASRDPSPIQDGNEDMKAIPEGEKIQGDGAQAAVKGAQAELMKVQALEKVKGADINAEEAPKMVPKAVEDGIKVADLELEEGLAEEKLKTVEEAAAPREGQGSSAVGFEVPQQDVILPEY

For assay [4], the target named is RAC-alpha serine/threonine-protein kinase (Homo sapiens, UniProt P31749).
Assay [5] deals with Ribosomal protein S6 kinase alpha-6 (Homo sapiens, UniProt Q9UK32).
In assay [6] the target is T4, Ribosyldihydronicotinamide dehydrogenase [quinone] (Homo sapiens, UniProt P16083).
T4 sequence (P16083 whole entry): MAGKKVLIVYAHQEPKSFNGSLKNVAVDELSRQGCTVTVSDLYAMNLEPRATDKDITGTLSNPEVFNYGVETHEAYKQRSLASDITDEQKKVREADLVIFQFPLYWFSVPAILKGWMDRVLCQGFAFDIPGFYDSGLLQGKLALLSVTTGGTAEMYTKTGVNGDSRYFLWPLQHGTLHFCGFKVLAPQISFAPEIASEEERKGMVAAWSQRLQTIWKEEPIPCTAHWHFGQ

Assay [7] concerns the target T5, Serine/threonine-protein kinase D3 (Homo sapiens, UniProt O94806).
T5 sequence (O94806 whole entry): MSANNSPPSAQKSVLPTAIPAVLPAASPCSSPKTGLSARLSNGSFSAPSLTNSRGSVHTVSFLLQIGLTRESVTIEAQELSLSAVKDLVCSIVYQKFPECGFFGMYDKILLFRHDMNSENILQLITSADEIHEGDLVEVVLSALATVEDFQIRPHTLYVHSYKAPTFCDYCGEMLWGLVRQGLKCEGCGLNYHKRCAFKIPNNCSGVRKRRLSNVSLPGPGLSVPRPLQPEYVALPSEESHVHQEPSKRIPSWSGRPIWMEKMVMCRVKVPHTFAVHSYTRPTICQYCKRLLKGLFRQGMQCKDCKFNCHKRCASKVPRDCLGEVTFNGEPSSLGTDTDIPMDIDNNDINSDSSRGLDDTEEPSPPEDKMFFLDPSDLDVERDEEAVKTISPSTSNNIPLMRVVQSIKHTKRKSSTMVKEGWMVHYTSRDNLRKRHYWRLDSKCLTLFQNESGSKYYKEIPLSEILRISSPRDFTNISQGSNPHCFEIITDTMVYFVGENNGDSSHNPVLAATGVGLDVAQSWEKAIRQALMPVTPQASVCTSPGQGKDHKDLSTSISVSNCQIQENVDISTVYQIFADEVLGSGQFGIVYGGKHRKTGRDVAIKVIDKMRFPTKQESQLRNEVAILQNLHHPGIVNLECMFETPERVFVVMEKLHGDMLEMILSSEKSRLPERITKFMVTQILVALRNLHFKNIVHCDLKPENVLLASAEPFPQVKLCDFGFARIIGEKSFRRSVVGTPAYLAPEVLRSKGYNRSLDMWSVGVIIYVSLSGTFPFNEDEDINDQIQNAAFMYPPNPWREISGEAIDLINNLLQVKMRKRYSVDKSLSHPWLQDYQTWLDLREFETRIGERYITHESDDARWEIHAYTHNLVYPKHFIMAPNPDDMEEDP

Assay [8] deals with T6, Phosphatidylinositol 5-phosphate 4-kinase type-2 alpha (Homo sapiens, UniProt P48426).
T6 sequence (P48426 whole entry): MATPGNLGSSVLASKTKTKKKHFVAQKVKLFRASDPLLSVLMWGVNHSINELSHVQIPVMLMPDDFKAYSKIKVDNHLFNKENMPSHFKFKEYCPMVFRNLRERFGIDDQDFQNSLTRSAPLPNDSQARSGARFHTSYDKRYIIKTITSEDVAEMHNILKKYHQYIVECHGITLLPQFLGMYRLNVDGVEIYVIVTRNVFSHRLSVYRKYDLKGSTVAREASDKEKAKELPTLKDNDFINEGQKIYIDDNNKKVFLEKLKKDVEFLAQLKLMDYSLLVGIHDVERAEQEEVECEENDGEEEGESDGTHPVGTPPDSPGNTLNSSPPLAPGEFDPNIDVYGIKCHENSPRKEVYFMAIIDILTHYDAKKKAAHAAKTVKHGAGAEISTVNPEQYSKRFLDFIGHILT

The structures appear in SMILES notation. The source made the active and inactive calls. Some results are limits rather than exact numbers.
Note: in the data inactive means no Kd found up to 30 µM.

RAC-alpha serine/threonine-protein kinase, sequence (P31749 whole entry): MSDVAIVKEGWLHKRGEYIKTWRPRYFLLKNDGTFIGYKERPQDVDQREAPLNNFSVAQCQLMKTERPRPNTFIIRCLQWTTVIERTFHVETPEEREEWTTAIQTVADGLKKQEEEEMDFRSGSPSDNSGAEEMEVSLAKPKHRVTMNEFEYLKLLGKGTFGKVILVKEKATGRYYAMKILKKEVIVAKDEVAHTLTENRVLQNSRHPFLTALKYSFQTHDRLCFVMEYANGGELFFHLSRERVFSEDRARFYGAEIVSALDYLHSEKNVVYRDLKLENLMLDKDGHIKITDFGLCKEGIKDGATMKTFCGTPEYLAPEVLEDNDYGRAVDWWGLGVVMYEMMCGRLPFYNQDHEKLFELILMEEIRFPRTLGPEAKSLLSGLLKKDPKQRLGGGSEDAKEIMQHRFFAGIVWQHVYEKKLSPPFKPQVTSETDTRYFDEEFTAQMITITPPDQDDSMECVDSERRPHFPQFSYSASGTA
Ribosomal protein S6 kinase alpha-6, sequence (Q9UK32 whole entry): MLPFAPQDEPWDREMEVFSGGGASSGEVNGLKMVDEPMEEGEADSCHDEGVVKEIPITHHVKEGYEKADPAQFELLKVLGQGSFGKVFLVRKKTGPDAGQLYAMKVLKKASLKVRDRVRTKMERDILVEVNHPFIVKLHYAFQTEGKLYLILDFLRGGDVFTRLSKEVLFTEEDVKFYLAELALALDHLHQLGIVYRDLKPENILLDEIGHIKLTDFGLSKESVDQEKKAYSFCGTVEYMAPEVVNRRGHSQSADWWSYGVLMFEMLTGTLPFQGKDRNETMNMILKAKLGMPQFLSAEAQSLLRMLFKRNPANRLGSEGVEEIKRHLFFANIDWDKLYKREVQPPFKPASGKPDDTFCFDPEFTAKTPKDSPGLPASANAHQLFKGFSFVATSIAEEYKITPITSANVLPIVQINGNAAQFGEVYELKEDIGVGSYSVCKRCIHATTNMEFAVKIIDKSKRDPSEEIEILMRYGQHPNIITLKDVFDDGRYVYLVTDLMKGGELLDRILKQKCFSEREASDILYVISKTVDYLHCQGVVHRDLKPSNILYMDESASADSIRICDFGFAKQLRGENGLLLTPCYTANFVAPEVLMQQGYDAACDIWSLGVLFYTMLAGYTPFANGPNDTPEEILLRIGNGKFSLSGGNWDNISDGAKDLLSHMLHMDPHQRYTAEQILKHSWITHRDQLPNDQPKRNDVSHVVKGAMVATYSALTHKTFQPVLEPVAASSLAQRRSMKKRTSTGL

As for `C[C@H]1CNCCCN1S(=O)(=O)c1cccc2cncc(F)c12`, the Kd in assay [1] is > 30 µM (inactive); in assay [2] it was > 30 µM (inactive); in assay [3], > 30 µM (inactive); in assay [4], > 30 µM (inactive); in assay [5], > 30 µM (inactive); in assay [6], 3.7 µM (active). Also, in assay [7], the Kd is > 30 µM (inactive).

In the case of `COc1cc(Nc2ncc3c(n2)-c2ccc(Cl)cc2C(c2c(F)cccc2OC)=NC3)ccc1C(=O)O` [ALISERTIB], the Kd in assay [8], in assay [1], in assay [2], in assay [3], in assay [5] and in assay [6] was > 30 µM (inactive) in each case.

In the case of `Cc1nc(NC(=O)N2CCC[C@H]2C(N)=O)sc1-c1ccnc(C(C)(C)C(F)(F)F)c1` [ALPELISIB], the Kd in assay [1], in assay [2], in assay [4], in assay [5], in assay [6] and in assay [7] was > 30 µM (inactive) in each case.

`O=C(Nc1c[nH]nc1-c1nc2cc(CN3CCOCC3)ccc2[nH]1)NC1CC1` [AT-9283]: the Kd in assay [1], in assay [2], in assay [3], in assay [4] and in assay [6] was > 30 µM (inactive) throughout.

For the compound `CNC(=O)c1ccccc1Sc1ccc2c(/C=C/c3ccccn3)n[nH]c2c1` [AXITINIB], the Kd in assay [8], in assay [1], in assay [2] and in assay [6] was > 30 µM (inactive) throughout.

With `CC(C)(C)c1nc(-c2cccc(NS(=O)(=O)c3c(F)cccc3F)c2F)c(-c2ccnc(N)n2)s1` [DABRAFENIB], the Kd was > 30 µM (inactive) in assay [8]; > 30 µM (inactive) in assay [1]; > 30 µM (inactive) in assay [2]; > 30 µM (inactive) in assay [5]; > 30 µM (inactive) in assay [6]; 0.12 µM (active) in assay [7].

Take `Cn1cc(C2=C(c3cn(C4CCN(Cc5ccccn5)CC4)c4ccccc34)C(=O)NC2=O)c2ccccc21` [ENZASTAURIN]: the Kd in assay [8], in assay [1], in assay [2] and in assay [6] was > 30 µM (inactive) throughout.

`Cc1nc2cc(-n3ncc(C(=O)c4cc5ccccc5[nH]4)c3N)ccc2[nH]1` [FGFR INHIBITOR DEBIO 1347]: the Kd in assay [1], in assay [2], in assay [4], in assay [5], in assay [6] and in assay [7] was > 30 µM (inactive) in each case.

As to `C[C@@H](Oc1cc(-n2cnc3ccc(CN4CCN(C)CC4)cc32)sc1C(N)=O)c1ccccc1C(F)(F)F` [GSK-461364], the Kd in assay [8], in assay [1], in assay [2] and in assay [6] was > 30 µM (inactive) throughout.

For `NC1(c2ccc(-c3nc4ccn5c(=O)[nH]nc5c4cc3-c3ccccc3)cc2)CCC1` [MK-2206], the Kd in assay [8], in assay [1], in assay [2], in assay [3], in assay [5] and in assay [6] was > 30 µM (inactive) throughout. Also, in assay [7], the Kd is > 30 µM (inactive).

As for `Cc1[nH]c(/C=C2\C(=O)Nc3ccccc32)c(C)c1CCC(=O)O` [ORANTINIB], the Kd in assay [8], in assay [1], in assay [2], in assay [3], in assay [5] and in assay [6] was > 30 µM (inactive) throughout.

`NC(=O)c1c(OCc2c(F)cc(Br)cc2F)nsc1NC(=O)NCCCCN1CCCC1` [OSI-632]: the Kd in assay [8], in assay [1], in assay [2], in assay [3], in assay [5] and in assay [6] was > 30 µM (inactive) each time.

`CC(=O)NCC(=O)N1[C@@H]2CC[C@H]1c1ccc(Nc3ncc(C(F)(F)F)c(NC4CCC4)n3)cc12` [PF-03814735]: the Kd in assay [8], in assay [1], in assay [2], in assay [3] and in assay [6] was > 30 µM (inactive) in each case.

In the case of `O=C(NOCCO)c1cc(CN2OCCCC2=O)c(F)c(F)c1Nc1ccc(I)cc1F` [RO-4987655], the Kd in assay [8], in assay [1], in assay [2] and in assay [6] was > 30 µM (inactive) each time.

Consider `N#CC[C@H](C1CCCC1)n1cc(-c2ncnc3[nH]ccc23)cn1` [RUXOLITINIB], for which the Kd in assay [8], in assay [1], in assay [2] and in assay [6] was > 30 µM (inactive) in each case.

Turning to `Cn1ncc(Cl)c1-c1cc(C(=O)N[C@H](CN)Cc2ccc(F)c(F)c2)oc1Cl` [UPROSERTIB], the Kd in assay [8] was > 30 µM (inactive); in assay [1], > 30 µM (inactive); in assay [2] it was > 30 µM (inactive); in assay [5], > 30 µM (inactive); in assay [6], > 30 µM (inactive); in assay [7] it was 2.64 µM (active).

For the compound `C[C@@H](N)c1ccc(C(=O)Nc2ccnc3[nH]ccc23)cc1` [Y-39983], the Kd in assay [8], in assay [1], in assay [2], in assay [3], in assay [4] and in assay [5] was > 30 µM (inactive) each time. The Kd in assay [6] is > 30 µM (inactive).

The term Kd denotes the free concentration of one partner at which half of the binding sites on the other are occupied at equilibrium, for simple one-to-one binding.
